Experimental data published in US5202339A, “Hydantoin derivatives” (Mochida Pharmaceutical Co., Ltd., priority 1987, dated 1993).

Experiments:
[1] = target: T1, bovine lens aldose reductase (Bos taurus, UniProt P16116); test: inhibitory activity on bovine lens aldose reductase (Experimental Example 2); type: biochemical; details: for IC50: pH 6.2, 10 mM DL-glyceraldehyde, 0.16 mM NADPH; for inhibitory activity against aldose reductase compared with reference compound B / potency compared with compound 13 and 15: in words
T1 construct: bovine lens aldose reductase preparation was used; from tissue; host or cells: bovine lens
Protocol: (§1) Assays were performed in 0.1M phosphate buffer (pH 6.2) containing 0.4M ammonium sulfate, 10 mM DL-glyceraldehyde, 0.16 mM nicotinamide adenine dinucleotide phosphate, reduced form (NADPH) and aldose reductase (0.010-0.016 units) in a total volume of 1.0 ml. To this mixture was added 10 μl of the solution of each hydantoin derivative to be tested, and the decrease in absorbance at 340 nm was measured with a spectrophotometer.

[2] = target: T2, rat lens aldose reductase (Rattus norvegicus, UniProt P07943); test: inhibitory activity on rat lens aldose reductase (Experimental Example 1); type: biochemical; details: for IC50: pH 6.2, 10 mM DL-glyceraldehyde, 0.16 mM NADPH; for potency relative to reference compound A: ratio in words
T2 construct: rat lens aldose reductase; from tissue; host or cells: rat lens
Protocol: as §1, with “The inhibitory activities of hydantoin derivatives on rat lens aldose reductase were measured according to the procedure of Inagaki et al. (K. Inagaki et al., Arch. Biochem. Biophys., 216, 337 (1982)) with slight modifications. Assays” for “Assays”
The concentrations of typical hydantoin derivatives of the present invention required to produce 50% inhibition are shown in table 1.

[3] = test system: Streptozotocin-Diabetic Rats; test: Hypoglycemic Effects in Streptozotocin-Diabetic Rats (Experimental Example 4); type: in vivo, rat (male Wistar); details: Rattus norvegicus; STZ-diabetic rats, 100 mg/kg oral, 6 hrs after administration; read-out: Lowering rate of serum glucose (%)
Protocol: Diabetic rats were produced according to the method of Junod et al. (A. Junod et al., J. Clin. Invest., 48, 2129 (1969)). Briefly, male Wistar rats were given 26.5 mg/kg of streptozotocin (STZ) intravenously. Four days later, the rats with serum glucose levels of between 400 and 500 mg/dl were used. After being fasted for 4 hrs, groups of 5 diabetic rats were orally administered with the compounds of the present invention or gliclazide in a dose of 100 mg/kg. Blood sample were collected from the orbital vein before and 6 hrs after the administration. Serum glucose levels were determined by the enzymatic method with an autoanalyzer (Cobas Fara®, Roche).

IC50 [1] [nM]	Compound	inhibition in vivo at 100 mg/kg [3] [%]	other results
270	COc1c(S(=O)(=O)N2CC(=O)NC2=O)sc2ccccc12 [Compound 31, 1-(3-methoxybenzo[b]thiophen-2-yl-sulfonyl)hydantoin]	–	–
–	O=C1CN(S(=O)(=O)c2cc3ccccc3cc2Cl)C(=O)N1 [Compound 2, 1-(3-chloronaphthalen-2-ylsulfonyl)hydantoin]	–	IC50 [2]: 160 nM
270	O=C1CN(S(=O)(=O)c2cc3ccc(Cl)cc3s2)C(=O)N1 [Compound 26, 1-(6-chlorobenzo[b]thiophen-2-yl-sulfonyl)hydantoin]	33.1	–
–	O=C1CN(S(=O)(=O)c2cc3c(Br)cccc3o2)C(=O)N1 [Compound 51, 1-(4-bromobenzo[b]furan-2-ylsulfonyl)hydantoin]	11	–
260	O=C1CN(S(=O)(=O)c2cc(Br)c(Br)s2)C(=O)N1 [Compound 25, 1-(4,5-dibromothiophen-2-ylsulfonyl)hydantoin]	–	–
–	O=C1CN(S(=O)(=O)c2cc3cccc(F)c3o2)C(=O)N1 [Compound 48, 1-(7-fluorobenzo[b]furan-2-ylsulfonyl)hydantoin]	45.9	–
120	O=C1CN(S(=O)(=O)c2sc3ccccc3c2Br)C(=O)N1 [Compound 30, 1-(3-bromobenzo[b]thiophen-2-yl-sulfonyl)hydantoin]	–	–
100	Cc1ccc2cc(S(=O)(=O)N3CC(=O)NC3=O)ccc2c1[N+](=O)[O-] [Compound 13, 1-(6-methyl-5-nitronaphthalen-2-yl-sulfonyl)hydantoin]	–	IC50 [2]: 27 nM; potency relative to reference compound A [2]: ten times or more potent; inhibitory activity against aldose reductase compared with reference compound B [1]: stronger inhibitory activities against aldose reductase
–	O=C1CN(S(=O)(=O)c2ccc3ccc(Cl)cc3c2)C(=O)N1 [Compound 5, 1-(7-chloronaphthalen-2-ylsulfonyl)hydantoin]	–	IC50 [2]: 390 nM
400	O=C1CN(S(=O)(=O)c2cc3cc(C(=O)O)ccc3s2)C(=O)N1 [Compound 43, 1-(5-carboxybenzo[b]thiophen-2-yl-sulfonyl)hydantoin]	–	–
–	O=C1CN(S(=O)(=O)c2ccc3c([N+](=O)[O-])cccc3c2)C(=O)N1 [Compound 11, 1-(5-nitronaphthalen-2-ylsulfonyl)hydantoin]	–	IC50 [2]: 100 nM
–	O=C1CN(S(=O)(=O)c2ccc3ccccc3c2Br)C(=O)N1 [Compound 8, 1-(1-bromonaphthalen-2-ylsulfonyl)hydantoin]	–	IC50 [2]: 94 nM
380	CS(=O)(=O)c1c(S(=O)(=O)N2CC(=O)NC2=O)sc2ccccc12 [Compound 32, 1-(3-methylsulfonylbenzo[b]thiophen-2-ylsulfonyl)hydantoin]	–	–
140	CC(C)c1c(S(=O)(=O)N2CC(=O)NC2=O)sc2ccccc12 [Compound 28, 1-(3-isopropylbenzo[b]thiophen-2-yl-sulfonyl)hydantoin]	–	–
–	O=C1CN(S(=O)(=O)c2oc3ccccc3c2I)C(=O)N1 [Compound 53, 1-(3-iodobenzo[b]furan-2-ylsulfonyl)hydantoin]	19	–
–	O=C1CN(S(=O)(=O)c2ccc3cccc(Cl)c3c2)C(=O)N1 [Compound 6, 1-(8-chloronaphthalen-2-ylsulfonyl)hydantoin]	–	IC50 [2]: 460 nM
–	O=C1CN(S(=O)(=O)c2cc3ccc(Br)cc3o2)C(=O)N1 [Compound 52, 1-(6-bromobenzo[b]furan-2-ylsulfonyl)hydantoin]	29	–
470	O=C1CN(S(=O)(=O)c2nsc3ccccc23)C(=O)N1 [Compound 41, 1-(benzo[b]isothiazol-3-ylsulfonyl)hydantoin]	23.6	–
340	O=C1CN(S(=O)(=O)c2nc3ccccc3s2)C(=O)N1 [Compound 22, 1-(benzothiazol-2-ylsulfonyl)hydantoin]	15	–
320	O=C1CN(S(=O)(=O)c2cc3cc(F)ccc3s2)C(=O)N1 [Compound 39, 1-(5-fluorobenzo[b]thiophen-2-yl-sulfonyl)hydantoin]	16	–
–	Cc1cc2ccccc2cc1S(=O)(=O)N1CC(=O)NC1=O [Compound 12, 1-(3-methylnaphthalen-2-ylsulfonyl)hydantoin]	–	IC50 [2]: 140 nM

IC50 [1] [nM]	Compound	inhibition in vivo at 100 mg/kg [3] [%]	other results
220	O=C1CN(S(=O)(=O)c2ccc3oc(=O)ccc3c2)C(=O)N1 [Compound 23, 1-(coumarin-6-ylsulfonyl)hydantoin]	–	potency compared with compound 13 and 15 [1]: as potent as compound 13 and 15
240	O=C1CN(S(=O)(=O)c2cc3cc(Cl)ccc3s2)C(=O)N1 [Compound 18, 1-(5-chlorobenzo[b]thiophen-2-yl-sulfonyl)hydantoin]	–	potency compared with compound 13 and 15 [1]: as potent as compound 13 and 15
270	O=C1CN(S(=O)(=O)c2cc3cc([N+](=O)[O-])ccc3s2)C(=O)N1 [Compound 42, 1-(5-nitrobenzo[b]thiophen-2-yl-sulfonyl)hydantoin]	–	–
390	O=C1CN(S(=O)(=O)c2cc3ccccc3s2)C(=O)N1 [Compound 16, 1-(benzo[b]thiophen-2-ylsulfonyl)hydantoin]	33.5	–
–	Cc1ccc2ccc(S(=O)(=O)N3CC(=O)NC3=O)cc2c1 [Compound 14, 1-(7-methylnaphthalen-2-ylsulfonyl)hydantoin]	–	IC50 [2]: 350 nM
54	O=C1CN(S(=O)(=O)c2oc3cc(Cl)cc(Cl)c3c2Br)C(=O)N1 [Compound 46, 1-(3-bromo-4,6-dichlorobenzo[b]furan-2-ylsulfonyl)hydantoin]	–	–
230	COc1ccc2cc(S(=O)(=O)N3CC(=O)NC3=O)ccc2c1[N+](=O)[O-] [Compound 15, 1-(6-methoxy-5-nitronaphthalen-2-yl-sulfonyl)hydantoin]	–	IC50 [2]: 38 nM; potency relative to reference compound A [2]: ten times or more potent; inhibitory activity against aldose reductase compared with reference compound B [1]: stronger inhibitory activities against aldose reductase
–	O=C1CN(S(=O)(=O)c2oc3cc(Br)ccc3c2Br)C(=O)N1 [Compound 54, 1-(3,6-dibromobenzo[b]furan-2-yl-sulfonyl)hydantoin]	29	–
–	O=C1CN(S(=O)(=O)c2ccc3cc(Br)ccc3c2)C(=O)N1 [Compound 10, 1-(6-bromonaphthalen-2-ylsulfonyl)hydantoin]	–	IC50 [2]: 170 nM
–	O=C1CN(S(=O)(=O)c2ccc3cc(Cl)ccc3c2)C(=O)N1 [Compound 4, 1-(6-chloronaphthalen-2-ylsulfonyl)hydantoin]	–	IC50 [2]: 140 nM
–	O=C1CN(S(=O)(=O)c2ccc3ccccc3c2)C(=O)N1 [Compound A, 1-(naphthalene-2-ylsulfonyl)hydantoin, reference compound]	–	IC50 [2]: 660 nM
–	O=C1CN(S(=O)(=O)c2oc3c(F)cccc3c2Br)C(=O)N1 [Compound 49, 1-(3-bromo-7-fluorobenzo[b]furan-2-yl-sulfonyl)hydantoin]	49.2	–
240	O=C1CN(S(=O)(=O)c2cc3c(I)cccc3o2)C(=O)N1 [Compound 36, 1-(4-iodobenzo[b]furan-2-ylsulfonyl)hydantoin]	–	–
120	O=C1CN(S(=O)(=O)c2sc3ccccc3c2Cl)C(=O)N1 [Compound 17, 1-(3-chlorobenzo[b]thiophen-2-yl-sulfonyl)hydantoin]	–	potency compared with compound 13 and 15 [1]: as potent as compound 13 and 15
–	O=C1CN(S(=O)(=O)c2ccc3ccccc3c2F)C(=O)N1 [Compound 50, 1-(1-fluoronaphthalen-2-ylsulfonyl)hydantoin]	48.8	–
190	N#Cc1c(S(=O)(=O)N2CC(=O)NC2=O)sc2ccccc12 [Compound 33, 1-(3-cyanobenzo[b]thiophen-2-yl-sulfonyl)hydantoin]	–	–
130	O=C1CN(S(=O)(=O)c2sc3ccccc3c2C(F)(F)F)C(=O)N1 [Compound 29, 1-(3-trifluoromethylbenzo[b]thiophen-2-ylsulfonyl)hydantoin]	–	–
85	O=C1CN(S(=O)(=O)c2sc3c(F)cccc3c2Br)C(=O)N1 [Compound 34, 1-(3-bromo-7-fluorobenzo[b]thiophen-2-ylsulfonyl)hydantoin]	13.2	–
170	O=C1CN(S(=O)(=O)c2cc3c(Cl)cc(Cl)cc3o2)C(=O)N1 [Compound 37, 1-(4,6-dichlorobenzo[b]furan-2-yl-sulfonyl)hydantoin]	14.5	–
190	O=C1CN(S(=O)(=O)c2cc3cccc(Cl)c3s2)C(=O)N1 [Compound 27, 1-(7-chlorobenzo[b]thiophen-2-yl-sulfonyl)hydantoin]	–	–
300	O=C1CN(S(=O)(=O)c2c(Cl)sc3ccccc23)C(=O)N1 [Compound 35, 1-(2-chlorobenzo[b]thiophen-3-yl-sulfonyl)hydantoin]	14	–
